From patent publication US10729668B2, “Ketobutyrate compounds and compositions for treating age-related symptoms and diseases” (The Regents of the University of California, priority 2014, dated 2020)

Key:
NADH dehydrogenase = assay: Electron flow assay, isolated liver mitochondria; type: biochemical, mouse
Protocol: Animal studies were performed under approved UCLA animal research protocols. Mitochondria from 3-month-old C57BL/6 mice were isolated. Briefly, livers were extracted, minced at 4° C. in MSHE+BSA (70 mM sucrose, 210 mM mannitol, 5 mM HEPES, 1 mM EGTA, and 0.5% fatty acid free BSA, pH 7.2), and rinsed several times to remove blood. All subsequent steps were performed on ice or at 4° C. The tissue was disrupted in 10 volumes of MSHE+BSA with a glass Dounce homogenizer (5-6 strokes) and the homogenate was centrifuged at 800×g for 10 minutes to remove tissue debris and nuclei. The supernatant was decanted through a cell strainer and centrifuged at 8,000×g for 10 minutes. […] Isolated mitochondrial respiration was measured by running coupling and electron flow assays as described. […] After basal readings, the sequential injections were as follows: 2 μM rotenone (Complex I inhibitor), 10 mM succinate (Complex II substrate), 4 μM antimycin A (Complex III inhibitor), and 10 mM/100 μM ascorbate/tetramethylphenylenediamine (Complex IV substrate). […]

Complex II = biological target: T1, Complex II (Mus musculus, UniProt Q8K2B3+Q9CQA3+Q9CXV1+Q9CZB0); assay: Complex II driven coupling assay, isolated liver mitochondria (succinate and rotenone); type: biochemical; settings: succinate supplemented
T1 construct: Mitochondria were isolated from mouse liver as described earlier; from tissue; host or cells: liver mitochondria of 3-month-old C57BL/6 mice
Protocol: Animal studies were performed under approved UCLA animal research protocols. Mitochondria from 3-month-old C57BL/6 mice were isolated. Briefly, livers were extracted, minced at 4° C. in MSHE+BSA (70 mM sucrose, 210 mM mannitol, 5 mM HEPES, 1 mM EGTA, and 0.5% fatty acid free BSA, pH 7.2), and rinsed several times to remove blood. All subsequent steps were performed on ice or at 4° C. The tissue was disrupted in 10 volumes of MSHE+BSA with a glass Dounce homogenizer (5-6 strokes) and the homogenate was centrifuged at 800×g for 10 minutes to remove tissue debris and nuclei. The supernatant was decanted through a cell strainer and centrifuged at 8,000×g for 10 minutes. The dark mitochondrial pellet was resuspended in MSHE+BSA and re-centrifuged at 8,000×g for 10 minutes. The final mitochondrial pellet was resuspended in 30 μl of MAS buffer (70 mM sucrose, 220 mM mannitol, 10 mM KH2PO4, 5 mM MgCl2, 2 mM HEPES, 1 mM EGTA, and 0.2% fatty acid free BSA, pH 7.2). Isolated mitochondrial respiration was measured by running coupling and electron flow assays as described. […]
Mitochondrial respiration was measured by running coupling and electron flow assays. […]

C2C12 Cells = assay: Oxygen consumption rate (OCR) in C2C12 cells, Seahorse XF-24; type: cell-based, mouse; settings: 1 hour treatment
Protocol: Measurement of oxygen consumption rates (OCR). OCR measurements were made using a Seahorse XF-24 analyzer (Seahorse Bioscience). C2C12 Cells were seeded in Seahorse XF-24 cell culture microplates at 30,000 cells per well in DMEM media supplemented with 10% FBS and 10 mM glucose, and incubated at 37° C. and 5% CO2 overnight. Treatment with α-KB or DMSO (vehicle control) was for 1 hour. Cells were washed in unbuffered DMEM medium (pH 7.4, 10 mM glucose) just before measurements, and maintained in this buffer with indicated concentrations of α-KB. OCR was measured three times under basal conditions and normalized to protein concentration per well.

T1 sequence (Q8K2B3 43-664): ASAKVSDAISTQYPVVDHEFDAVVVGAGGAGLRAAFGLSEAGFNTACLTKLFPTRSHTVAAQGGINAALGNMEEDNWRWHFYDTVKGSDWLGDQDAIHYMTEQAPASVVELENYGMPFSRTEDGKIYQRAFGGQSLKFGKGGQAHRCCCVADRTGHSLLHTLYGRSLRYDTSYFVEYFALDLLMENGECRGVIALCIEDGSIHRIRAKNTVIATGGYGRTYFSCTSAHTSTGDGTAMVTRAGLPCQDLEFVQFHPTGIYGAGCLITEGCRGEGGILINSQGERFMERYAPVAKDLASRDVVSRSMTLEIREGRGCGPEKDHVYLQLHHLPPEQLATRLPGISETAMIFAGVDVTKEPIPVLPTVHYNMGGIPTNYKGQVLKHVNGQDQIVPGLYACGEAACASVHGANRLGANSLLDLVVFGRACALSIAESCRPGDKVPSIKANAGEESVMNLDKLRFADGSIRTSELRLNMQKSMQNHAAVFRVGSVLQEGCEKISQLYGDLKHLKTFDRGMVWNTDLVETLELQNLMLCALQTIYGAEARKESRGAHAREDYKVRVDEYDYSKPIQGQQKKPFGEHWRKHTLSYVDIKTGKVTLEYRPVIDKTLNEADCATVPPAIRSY
T1 sequence (Q9CQA3 31-282): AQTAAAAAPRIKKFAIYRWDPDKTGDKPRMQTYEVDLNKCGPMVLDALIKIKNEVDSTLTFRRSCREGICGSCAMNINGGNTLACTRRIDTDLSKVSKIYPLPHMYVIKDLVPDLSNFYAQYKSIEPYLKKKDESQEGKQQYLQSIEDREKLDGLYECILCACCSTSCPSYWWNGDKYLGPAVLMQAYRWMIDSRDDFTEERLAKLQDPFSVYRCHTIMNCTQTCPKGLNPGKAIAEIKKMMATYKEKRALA
T1 sequence (Q9CZB0 30-169): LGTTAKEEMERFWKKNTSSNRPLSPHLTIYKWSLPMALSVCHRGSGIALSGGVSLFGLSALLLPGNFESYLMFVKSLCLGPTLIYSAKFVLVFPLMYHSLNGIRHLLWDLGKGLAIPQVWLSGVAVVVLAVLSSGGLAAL
T1 sequence (Q9CXV1 57-159): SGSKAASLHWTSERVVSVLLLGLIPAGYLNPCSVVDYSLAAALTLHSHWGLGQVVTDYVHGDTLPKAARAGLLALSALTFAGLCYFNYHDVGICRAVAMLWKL

## C[C@@H](O)CC(=O)O [3-HB, (R)-3-hydroxybutyrate, reference compound]
NADH dehydrogenase
  respiration in electron flow assay: does not affect
Complex II
  mitochondrial respiration, Complex II-driven coupling: does not affect
C2C12 Cells
  basal respiration: does not have any effect
  maximal respiration (mitochondrial respiration upon FCCP treatment): does not have any effect
